In assay [1] the test system is LTB4 production in human blood. Nature of the assay: Inhibition of Calcium Ionophore-Induced LTB4 Production in Human Blood (HWB). The assay is classed as cell-based. The conditions noted are these: Homo sapiens, read-out: Inhibition of Calcium Ionophore-Induced LTB4 Production in Human Blood IC50 HWB. The protocol: One or more concentrations of the leukotriene A4 hydrolass inhibitor compounds being tested were prepared (diluted in DMSO) and 2 μl added and gently mixed with the diluted whole blood. After incubating for 15 minutes at 37° C. in a humidified incubator, calcium ionophore A23187 (Sigma Chemical Co., St. Louis, Mo.) was added to a final concentration of 20 mcg/ml and the incubation continued under the same conditions for an additional 10 minutes to allow LTB4 formation. The reaction was terminated by centrifugation (833 g, 10 minutes at 4° C.) and supernatant were analyzed for LTB4 and thromboxane by commercially available enzyme-linked immunoassays (Caymen Chemical Co., Ann Arbor, Mich.) according to the manufacturer's instructions. The IC50 of each test compound was determined from the amount of inhibition of LTB4 production as compared to an essentially identical assay in which no inhibitor compound was present.

Assay [2] addresses T1, recombinant human LTA4 hydrolase (Homo sapiens, UniProt P09960).
T1 construct: made in house; host or cells: Spodoptera frugiperda Sf-9 cells, baculovirus (AcNPV) expression vector
T1 sequence (P09960 1-611): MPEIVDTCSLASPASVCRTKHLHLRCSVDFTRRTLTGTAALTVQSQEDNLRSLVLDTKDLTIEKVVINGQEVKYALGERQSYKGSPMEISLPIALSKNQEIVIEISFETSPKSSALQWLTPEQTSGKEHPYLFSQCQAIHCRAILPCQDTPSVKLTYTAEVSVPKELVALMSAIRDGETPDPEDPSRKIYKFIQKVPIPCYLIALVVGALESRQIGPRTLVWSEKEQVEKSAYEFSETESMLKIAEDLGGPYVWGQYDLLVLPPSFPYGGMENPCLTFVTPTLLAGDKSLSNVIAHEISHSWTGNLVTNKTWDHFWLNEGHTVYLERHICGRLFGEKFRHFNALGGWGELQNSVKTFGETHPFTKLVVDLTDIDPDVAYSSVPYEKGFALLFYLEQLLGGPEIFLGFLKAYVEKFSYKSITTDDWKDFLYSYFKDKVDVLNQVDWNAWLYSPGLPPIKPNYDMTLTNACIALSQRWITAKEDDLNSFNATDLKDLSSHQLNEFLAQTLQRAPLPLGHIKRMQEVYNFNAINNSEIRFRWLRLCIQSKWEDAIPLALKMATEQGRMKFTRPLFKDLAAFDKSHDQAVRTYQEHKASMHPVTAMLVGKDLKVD
In words: Recombinant Human LTA4 Hydrolase Assay for LTA4 Hydrolase Inhibitor Activity (LTB4 by enzyme-linked immunoassay). The assay is classed as biochemical. The conditions noted are these: for IC50: read-out: Recombinant Human LTA4 Hydrolase Assay IC50 LTA4H. The procedure:
Compounds of the present invention were tested for LTA4 hydrolase inhibitor activity against recombinant human LTA4 hydrolase (rhLTA4 H). […] Briefly, LTA4 hydrolase encoding DNA was amplified by polymerase chain reaction using a pair of oligonucleotide primers based on the nucleotide sequence from the 5'-end, and the complement of the 3'-end, of the coding region of the LTA4 hydrolase gene, the nucleotide sequence of which gene is known. […] A λgtll human placental cDNA library (Clonetech, Palo Alto, Calif.) provided the nucleic acid template.
One or more predetermined amounts of a compound of the invention were incubated in assay buffer (0.1M potassium phosphate, 5 mg/ml fatty acid free BSA, 10% DMSO, pH 7.4) for 10 minutes at room temperature with 250 ng of recombinant hLT4 H to allow binding, if any, between the enzyme and inhibitor. The stock enzyme solution was 1 mg/ml LTA4 hydrolase, 50 mM Tris, pH 8.0, 150 mM NaCl, 2.5 mM beta-mercaptoethanol, 50% glycerol. […] LTA4 (i.e., substrate) was prepared from the methyl ester of LTA4 (Biomol, Inc., Plymouth Meeting, Pa.) by treating the methyl ester with 30 molar equivalents of LiOH at room temperature for 18 hours. The LTA4 substrate in its free acid form was kept frozen at -80° C. until needed. […] Each reaction was carried out at room temperature for 10 minutes. The reaction was stopped by diluting 25 μl of the reaction mixture with 500 μl of the assay buffer without DMSO. LTB4 was quantified in the diluted sample by a commercially available enzyme-linked immunoassay [Caymen Chemical Co., Ann Arbor, Mich.] using the method recommended in the manufacturer's instructions and compared to the amount of LTB4 produced in a negative control (i.e., essentially identical conditions except without addition of an inhibitor compound). The IC50 was routinely calculated from the data produced.

[3] abbreviates: human whole blood, A23187 20 mcg/ml.

Molecules are shown by their SMILES. Structures can show the parent of a compound that is named as a salt. Where two headings read alike, the source gives them in different places.

Broadly, the IC50 is the point on the concentration scale where inhibition reaches its midpoint. For orientation: inhibition means the percentage by which the read-out fell short of the control.

Consider `C(=C\c1ccc(OCCN2CCCC2)cc1)/c1ccccc1` [Example 46], for which the values for the IC50 in assay [1] (setting [3]) and in assay [2] were 1500 nM and 1350 nM, respectively.

Turning to `O=C(O)c1ccc(-c2ccc(OCCN3CCCC3)cc2)cc1` [Example 63], in assay [2], the inhibition at 25 µM is 40%.

Take `O=C(O)c1ccc(Oc2ccc(OCCN3CCCC3)cc2)cc1` [Example 64]: the inhibition at 25 µM in assay [2] stood at 52%.

Consider `c1ccc(Cc2ccc(SCCN3CCCC3)cc2)cc1` [Example 68], for which, in assay [2], the IC50 worked out at 480 nM.

On to `c1ccc(Cc2cnc(OCCN3CCCC3)s2)cc1` [Example 76], for which the IC50 is 3500 nM in assay [1] (setting [3]) and 2900 nM in assay [2].

`Clc1cc(Cc2ccccc2)ccc1OCCN1CCCC1` [Example 113]: the IC50 amounted to 2010 nM in assay [1] (setting [3]) and 1230 nM in assay [2].

Take `Fc1cc(Cc2ccccc2)ccc1OCCN1CCCC1` [Example 115]: the IC50 in assay [1] (setting [3]) is 190 nM; in assay [2], 60 nM.

In the case of `c1cc(Cc2ccc(OCCN3CCCC3)cc2)ccn1` [Example 126], in assay [2], the IC50 came out at 630 nM.

In the case of `COc1cccc(Cc2ccc(OCCN3CCCC3)cc2)c1` [Example 127], the concentration for half-maximal inhibition (IC50) in assay [1] (setting [3]) stood at 2480 nM; in assay [2] it was 840 nM.

Turning to `COc1ccc(Cc2ccc(OCCN3CCCC3)cc2)cc1` [Example 128], the IC50 is 890 nM in assay [1] (setting [3]) and 70 nM in assay [2].

As for `c1coc(Cc2ccc(OCCN3CCCC3)cc2)c1` [Example 135], in assay [2], the IC50 amounted to 47 nM.

Consider `c1cc(Cc2ccc(OCCN3CCCC3)cc2)co1` [Example 136], for which the IC50 in assay [2] came out at 77 nM.

As for `Clc1ccc(Cc2ccc(OCCN3CCCC3)cc2)cc1` [Example 140], the values for the IC50 in assay [1] (setting [3]) and in assay [2] were 1010 nM and 60 nM, respectively.

As for `Cc1nc(COc2ccc(OCCN3CCCC3)cc2)cs1` [Example 202], in assay [2], the inhibition at 3 µM amounted to 44%.

Turning to `Clc1cccc(Cl)c1COc1ccc(OCCN2CCCC2)cc1` [Example 204], the inhibition at 25 µM in assay [2] was 49%.

Turning to `Cc1ccccc1COc1ccc(OCCN2CCCC2)cc1` [Example 210], the inhibition at 25 µM in assay [2] was 4%.

As for `COC(=O)[C@@H]1CCCN1CCOc1ccc(Cc2ccccc2)cc1` [Example 225, Methyl 1-[2-[4-(phenylmethyl)phenoxy]ethyl]-2S-pyrrolidine-2-carboxylate, monohydrochloride, hydrate], the IC50 turned out to be 1860 nM in assay [1] (setting [3]) and 450 nM in assay [2].

`NC(=O)C1CCN(CCCOc2ccc(Cc3ccccc3)cc2)CC1` [Example 226, 1-[3-[4-(phenylmethyl)phenoxy]propyl]-4-piperidinecarboxamide]: in assay [2], the inhibition at 100 µM came out at 4%.

As to `CC(=O)NC1CCN(CCOc2ccc(Cc3ccccc3)cc2)C1` (stereo not drawn) [Example 227], the figures for the IC50 in assay [1] (setting [3]) and in assay [2] were 420 nM and 210 nM, respectively.

Turning to `O=C(OCc1ccccc1)[C@@H]1CCCN1CCCOc1ccc(Cc2ccccc2)cc1` [Example 228, Phenylmethyl 1-[3-[4-(phenylmethyl)phenoxy]propyl]-L-prolinate], the inhibition at 3 µM in assay [2] is 28%.

Regarding `CC(=O)NC1CCN(CCOc2ccc(Cc3ccccc3)cc2)CC1` [Example 238], the IC50 stood at 180 nM in assay [1] (setting [3]) and 50 nM in assay [2].

With `NC(=O)C1CCN(CCOc2ccc(Cc3ccccc3)cc2)CC1` [Example 239], in assay [2], the IC50 was 9000 nM.

Consider `NC(=O)C1CCCN(CCCOc2ccc(Cc3ccccc3)cc2)C1` (stereo not drawn) [Example 244], for which, in assay [2], the inhibition at 100 µM turned out to be 15%.

`NC(=O)C1CCCN(CCCOc2ccc(Oc3ccccc3)cc2)C1` (stereo not drawn) [Example 250]: the IC50 in assay [1] (setting [3]) is 1770 nM; in assay [2] it was 4900 nM.

For the compound `CC(C)(C)OC(=O)C1CCCN1CCCOc1ccc(Cc2ccccc2)cc1` (stereo not drawn) [Example 260], the inhibition at 3 µM in assay [2] came to 14%.

On to `CCOC(=O)CNCCCOc1ccc(Cc2ccccc2)cc1` [Example 264], for which the IC50 in assay [1] (setting [3]) turned out to be 1100 nM; in assay [2], 3000 nM.

Regarding `CC(C)(C)OC(=O)CCNCCCOc1ccc(Cc2ccccc2)cc1` [Example 268], the half-inhibitory concentration (IC50) in assay [1] (setting [3]) came out at 7980 nM. Further, the inhibition at 3 µM in assay [2] stood at 53%.

Regarding `CCOC(=O)CC(NCCOc1ccc(Cc2ccccc2)cc1)c1cccnc1` (stereo not drawn) [Example 271], the IC50 in assay [1] (setting [3]) is 7980 nM; in assay [2], 11000 nM.

`COC(=O)C1CCN(CCOc2ccc(Cc3ccccc3)cc2)C1` (stereo not drawn) [Example 276]: the 50% inhibitory concentration (IC50) amounted to 232 nM in assay [1] (setting [3]) and 4100 nM in assay [2].

Consider `N#CC1CCN(CCOc2ccc(Cc3ccccc3)cc2)CC1` [Example 279], for which the IC50 in assay [2] amounted to 470 nM.

As for `CC1(CN2CCCC2)Cc2cc(Cc3ccccc3)ccc2O1` (stereo not drawn) [Example 285], the results for the IC50 in assay [1] (setting [3]) and in assay [2] were 1730 nM and 130 nM, respectively.

For `CC1(CN2CCC(C(N)=O)CC2)Cc2cc(Cc3ccccc3)ccc2O1` (stereo not drawn) [Example 286], the inhibition at 100 µM in assay [2] was determined as 41%.

Regarding `O=C1CC2CCCC(C1)N2CCOc1ccc(Cc2ccccc2)cc1` [Example 303], the figures for the half-inhibitory concentration (IC50) in assay [1] and in assay [2] were 1650 nM and 97 nM, respectively.

For `CCOC(=O)C1CCN(CCOc2ccc(Cc3cccnc3)cc2)CC1` [Example 311], the inhibition at 100 µM in assay [2] is 44%.

For `CCOC(=O)C1CCN(CCOc2ccc(Cc3ccc(F)cc3)cc2)CC1` [Example 312], in assay [2], the inhibition at 100 µM is 46%.

As for `O=C(CNCCOc1ccc(Cc2ccccc2)cc1)OCc1ccccc1` [Example 319], the inhibition at 100 µM in assay [2] came out at 47%.

Turning to `COC(=O)CCNCCOc1ccc(Cc2ccccc2)cc1` [Example 324], the half-inhibitory concentration (IC50) in assay [1] (setting [3]) was found to be 586 nM; in assay [2], 220 nM.

On to `COC(=O)CCN(C)CCCOc1ccc(Cc2cccs2)cc1` [Example 331], for which the IC50 worked out at 95 nM in assay [1] (setting [3]) and 16 nM in assay [2].

For the compound `c1ccc(Cc2ccc(OCCn3cnc4cccnc43)cc2)cc1` [Example 338C], in assay [1] (setting [3]), the half-inhibitory concentration (IC50) is 9150 nM. Also, in assay [2], the inhibition at 3 µM was 34%.

Regarding `c1ccc(Oc2ccc(OCCCn3cnc4ccccc43)cc2)cc1` [Example 343], the inhibition at 3 µM in assay [2] was found to be 40%.

Consider `c1ccc(COc2ccc(OCCn3cnc4ccccc43)cc2)cc1` [Example 345], for which the inhibition at 3 µM in assay [2] is 35%.

In the case of `c1ccc(COc2ccc(OCCn3cnc4cccnc43)cc2)cc1` [Example 346A], the inhibition at 3 µM in assay [2] was determined as 31%.

For the compound `Fc1ccc(Oc2ccc(OCCn3cnc4cccnc43)cc2)cc1` [Example 354A], the inhibition at 3 µM in assay [2] was 51%.

With `c1ccc(Cc2ccc3c(c2)CC(Cn2nnc4cccnc42)O3)cc1` (stereo not drawn) [Example 360A], the inhibition at 100 µM in assay [2] was found to be 36%.

Turning to `c1ccc(Cc2ccc3c(c2)CC(Cn2nc4cccnc4n2)O3)cc1` (stereo not drawn) [Example 360B], in assay [2], the inhibition at 100 µM was found to be 19%.

With `c1ccc(Cc2ccc3c(c2)CC(Cn2nc4ccncc4n2)O3)cc1` (stereo not drawn) [Example 361A], the inhibition at 100 µM in assay [2] stood at 24%.

Turning to `Nc1ccc2ncn(CCOc3ccc(Cc4ccccc4)cc3)c2c1` [Example 362B], the IC50 amounted to 4580 nM in assay [1] (setting [3]) and 1320 nM in assay [2].

For `O=C(COc1ccc(Cc2ccccc2)cc1)N1CCCCC1` [Example 387, 1-(1-piperidinyl)-2-[4-(phenylmethyl)phenoxy]ethanone], the IC50 in assay [1] (setting [3]) came to 120 nM; in assay [2], 37 nM.

Turning to `c1ccc(Cc2ccc(OCCN3CCCCC3)cc2)cc1` [Example 401], in assay [2], the concentration for half-maximal inhibition (IC50) was 55 nM.

For `C#CC(CC(=O)OCC)NCCOc1ccc(Cc2ccccc2)cc1` (stereo not drawn) [Example 408], in assay [2], the inhibition at 100 µM came out at 76%.
